Results published in publication PMC3682108 (Journal of Infection and Chemotherapy, 2012).
Converted amounts (≈) assume the structure as drawn. Read-outs that look alike come from different tables or passages of the source.

Key:
[1] = system: methicillin-resistant Staphylococcus aureus (MRSA); format: in vivo, Japanese patients; settings: for Clinical success %, Wound or burn: MITT-MRSA, daptomycin 4 mg/kg qd n/N 31/38, vancomycin 1 g bid 11/13, at TOC; for Clinical response, wound or burn: daptomycin 4 mg/kg qd, wound or burn n = 38
[2] = system: methicillin-resistant Staphylococcus aureus (MRSA); assay: EAC-assessed microbiological response at test-of-cure, MITT-MRSA population; format: in vivo, Japanese patients; settings: daptomycin n/N 0/2, vancomycin 0/1, at TOC
Safety evaluation = format: in vivo, Japanese patients; settings: for Recipients with CPK levels >200 U/l: human, in vivo; for Maximum CPK level in the recipient with CPK >500 U/l: single patient per group
baseline MRSA isolates = assay: microbe, parasite or virus in culture; format: cell-based, Staphylococcus aureus
[3] = Population pharmacokinetics of daptomycin in plasma by baseline renal function; settings: 4 mg/kg once daily
[4] = 74 baseline MRSA isolates at screening, broth microdilution, CLSI M7-A7

Row | Molecule | MIC range (baseline MRSA isolates; [4]) [µg/mL] | MIC90 (baseline MRSA isolates; Staphylococcus aureus, MRSA) [µg/mL] | Clinical success %, Wound or burn [1] [%] | Microbiological success %, Other infection [2] [%] | Recipients with CPK levels >200 U/l (Safety evaluation) [%] | Maximum CPK level in the recipient with CPK >500 U/l (Safety evaluation) | MIC90 (baseline MRSA isolates; [4]) [µg/mL] | further results
1 | CCCCCCCCCC(=O)N[C@@H](Cc1c[nH]c2ccccc12)C(=O)N[C@H](CC(N)=O)C(=O)N[C@@H](CC(=O)O)C(=O)N[C@@H]1C(=O)NCC(=O)N[C@@H](CCCN)C(=O)N[C@@H](CC(=O)O)C(=O)N[C@H](C)C(=O)N[C@@H](CC(=O)O)C(=O)NCC(=O)N[C@H](CO)C(=O)N[C@@H]([C@H](C)CC(=O)O)C(=O)N[C@@H](CC(=O)c2ccccc2N)C(=O)O[C@@H]1C [Daptomycin] |  |  | 81.6 | 0.0 | 9.1 | 2,545 U/l |  | Clinical response, wound or burn ([1]; baseline MRSA daptomycin MIC 0.25): 87.5%; Clinical response, wound or burn ([1]; baseline MRSA daptomycin MIC 0.5): 82.4%; Clinical response, wound or burn ([1]; baseline MRSA daptomycin MIC 1): 50.0%; Drug-related serious adverse event (kind) (Safety evaluation; one patient, just after initial dosing, resolved 4 days after discontinuation): anaphylactic shock; MIC90 (baseline MRSA isolates; baseline isolates): 0.5 µg/mL (≈ 0.309 µM); MIC range (baseline MRSA isolates; baseline isolates): 0.25 to 1 µg/mL; Mean CL/wt lower than in patients with normal renal function (CLcr >80 ml/min) ([3]; mild renal impairment (CLcr 50–80 ml/min)): approximately 15%; Mean CL/wt lower than in patients with normal renal function (CLcr >80 ml/min) ([3]; moderate renal impairment (CLcr 30 to <50 ml/min)): approximately 15%; AUC relative to patients with normal renal function ([3]; one patient with CLcr <30 ml/min): approximately 1.4 times higher; Mean CL/wt lower than in patients with normal renal function (CLcr >80 ml/min) ([3]; severe renal impairment (CLcr <30 ml/min)): ~38%
2 | CN[C@H](CC(C)C)C(=O)N[C@H]1C(=O)N[C@@H](CC(N)=O)C(=O)N[C@H]2C(=O)N[C@H]3C(=O)N[C@H](C(=O)N[C@H](C(=O)O)c4cc(O)cc(O)c4-c4cc3ccc4O)[C@H](O)c3ccc(c(Cl)c3)Oc3cc2cc(c3O[C@@H]2O[C@H](CO)[C@@H](O)[C@H](O)[C@H]2O[C@H]2C[C@](C)(N)[C@H](O)[C@H](C)O2)Oc2ccc(cc2Cl)[C@H]1O [Vancomycin, vancomycin] | 0.5 to 2 |  | 84.6 | 0.0 | 9.1 | 592 U/l | 1 (≈ 0.69 µM) | 
3 | Cc1onc(-c2ccccc2)c1C(=O)N[C@@H]1C(=O)N2[C@@H]1SC(C)(C)[C@@H]2C(=O)O [oxacillin] |  | > 128 |  |  |  |  |  | 

Now from value to molecule, other results behind:

Row | MIC range (baseline MRSA isolates; [4]) [µg/mL] | MIC90 (baseline MRSA isolates; Staphylococcus aureus, MRSA) [µg/mL] | Molecule | Clinical success %, Wound or burn [1] [%] | Microbiological success %, Other infection [2] [%] | Recipients with CPK levels >200 U/l (Safety evaluation) [%] | Maximum CPK level in the recipient with CPK >500 U/l (Safety evaluation) | MIC90 (baseline MRSA isolates; [4]) [µg/mL] | further results
4 | 0.25 to 4 | 2 (≈ 3.62 µM) | NCC[C@H](O)C(=O)N[C@@H]1C[C@H](N)[C@@H](O[C@H]2O[C@H](CN)CC[C@H]2N)[C@H](O)[C@H]1O[C@H]1O[C@H](CO)[C@@H](O)[C@H](N)[C@H]1O [arbecacin] |  |  |  |  |  | 
5 | 1 to 4 | 2 (≈ 5.93 µM) | CC(=O)NC[C@H]1CN(c2ccc(N3CCOCC3)c(F)c2)C(=O)O1 [linezolid] |  |  |  |  |  | 
6 | 0.25 to 8 |  | teicoplanin |  |  |  |  | 4 | 
